This is an account of results in ChEMBL document CHEMBL5500409, “Discovery of 5-(Piperidin-4-yl)-1,2,4-oxadiazole Derivatives as a New Class of Human Caseinolytic Protease P Agonists for the Treatment of Hepatocellular Carcinoma” (J Med Chem, 2024).

In general, IC50 refers to the concentration that inhibits the measured activity by half. Read a high IC50 as weaker potency in that assay.

For test [1], the system named is HCCLM3. In words: cells. Conditions: Homo sapiens, HCCLM3, 72 h.
Description: Antiproliferative activity against human HCCLM3 cells assessed as inhibition of cell proliferation measured after 72 hrs by MTT assay
The test system of test [2] is HCCLM3. As to the kind of experiment: Antitumor activity against human HCCLM3 cells xenografted in female Balb/c nude mouse assessed as tumor growth inhibition at 20 mg/kg, ip tumor inoculated for 5 days followed by compound administration every 2 days for 4 weeks relative to control. Particulars: HCCLM3, 672 h, read-out: TGI. (In general: In xenograft studies the graft and the host belong to different species.)

The test system of test [3] is HCCLM3. In words: cells. Particulars: Homo sapiens, HCCLM3, 72 h, read-out: INH.
Description: Antiproliferative activity against human HCCLM3 cells assessed as inhibition of cell proliferation at 10 uM measured after 72 hrs by MTT assay relative to control
Test [4] has as its target T1, ATP-dependent Clp protease proteolytic subunit, mitochondrial (Homo sapiens, UniProt Q16740). As to the kind of experiment: Agonist activity at human ClpP using Ac-WLA-AMC as substrate assessed as induction of substrate degradation.
Test [5] deals with T1, ATP-dependent Clp protease proteolytic subunit, mitochondrial. In words: Agonist activity at N-terminal SUMO tagged human ClpP transfected in Escherichia coli assessed as induction of alpha-casein degradation preincubated for 10 mins followed by alpha-casein addition and measured after 2 hrs by brilliant blue staining based SDS-PAGE analysis.

T1 sequence (Q16740 whole entry): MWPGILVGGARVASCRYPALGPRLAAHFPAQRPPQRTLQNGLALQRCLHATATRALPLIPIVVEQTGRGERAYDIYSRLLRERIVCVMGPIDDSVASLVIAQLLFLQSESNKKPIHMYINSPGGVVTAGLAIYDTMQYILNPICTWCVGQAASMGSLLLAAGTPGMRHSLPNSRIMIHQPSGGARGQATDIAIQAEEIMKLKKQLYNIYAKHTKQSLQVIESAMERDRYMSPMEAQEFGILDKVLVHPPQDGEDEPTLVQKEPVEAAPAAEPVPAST

In the test on HCCLM3 [1], `CNC(=O)c1cc(Oc2ccc(NC(=O)Nc3ccc(Cl)c(C(F)(F)F)c3)cc2)ccn1` [SORAFENIB] came in with an IC50 of 6.3 µM. In addition, the inhibition in vivo at 20 mg/kg in the test with HCCLM3 [2] is 80.2%.

For the compound `O=C(Cc1ccc(F)cc1)N1CC[C@H](c2nc(Cc3ccc(F)cc3)no2)C1`, the inhibition at 10 µM in the test on HCCLM3 [3] was 5.8%. The same measure, in the same setting: next, `N#Cc1cccc(CN2CCC(c3nc(Cc4ccc(F)cc4Cl)no3)CC2)c1`: 10.4%; `Fc1ccc(CN2CCC[C@@H](c3nc(-c4ccc(F)cc4)no3)C2)cc1`: 11%. Consider `N#Cc1cccc(CN2CCC(c3nc(Cc4cccc(F)c4)no3)CC2)c1`, for which, in the test with HCCLM3 [3], the inhibition at 10 µM was 50.4%. In the test with HCCLM3 [1], this compound showed an IC50 of 9.8 µM.

`N#Cc1cccc(CN2CCC(c3nc(Cc4ccc(F)cc4F)no3)CC2)c1`: the inhibition at 10 µM in the test on HCCLM3 [3] stood at 36.4%. Regarding `N#Cc1cccc(CN2CCC(c3nc(Cc4ccc(F)c(F)c4)no3)CC2)c1`, in the test on HCCLM3 [3], the inhibition at 10 µM is 88.3%. For the same compound, the midpoint of inhibition in the test with HCCLM3 [1], the IC50, lay at 3.7 µM. As to `N#Cc1cccc(CN2CCC(c3nc(Cc4ccc(Br)cc4F)no3)CC2)c1`, the inhibition at 10 µM in the test with HCCLM3 [3] was 23.7%. Still for that read-out and setting: next, `O=C(c1ccc(F)cc1)N1CCC(c2nc(Cc3ccc(F)cc3)no2)CC1`: 22.1%.

Turning to `N#Cc1cccc(CN2CCC(c3nc(Cc4ccc(Cl)c(F)c4)no3)CC2)c1`, the inhibition at 10 µM in the test with HCCLM3 [3] is 71.1%. The compound further had an IC50 in the test with HCCLM3 [1] of 7.6 µM.

Regarding `N#Cc1cccc(CN2CCC(c3nc(Cc4cc(F)c(F)c(F)c4)no3)CC2)c1`, the inhibition at 10 µM in the test with HCCLM3 [3] came out at 80.9%. Besides, the IC50 with HCCLM3 [1] came to 4.8 µM. For `N#Cc1cccc(CN2CCC(c3nc(Cc4ccc(Cl)cc4F)no3)CC2)c1` the same measures were 55.9% and 9.3 µM.

Turning to `N#Cc1cccc(CN2CC(c3nc(Cc4ccc(F)cc4)no3)C2)c1`, in the test with HCCLM3 [3], the inhibition at 10 µM was 5.9%. The same measure, in the same setting: next, `Fc1ccc(Cc2noc(C3CCN(Cc4ccccn4)CC3)n2)cc1Cl`: 11.1%; `O=C(NCCc1nc(Cc2ccc(F)cc2)no1)c1ccc(C(F)(F)F)cc1`: 15.5%; `O=C(c1ccc(F)cc1)N1CC[C@H](c2nc(Cc3ccc(F)cc3)no2)C1`: 6%.

For `N#Cc1cccc(CN2CCC(c3nc(-c4ccc(C(F)(F)F)cc4)no3)CC2)c1`, the inhibition at 10 µM in the test with HCCLM3 [3] amounted to 19.5%.

Turning to `O=C(c1ccc(F)cc1)N1CCC[C@H](c2nc(-c3ccc(F)cc3)no2)C1`, the EC50 in test [4] was determined as 1.2 µM; in test [5], 29.7 µM. This compound also showed an IC50 in the test with HCCLM3 [1] of 66.4 µM. For the compound `N#Cc1cccc(C(=O)NCCc2nc(Cc3ccc(F)cc3)no2)c1`, the inhibition at 10 µM with HCCLM3 [3] came to 16.1%. Consider `N#Cc1cccc(CN2CCC(c3nc(Cc4ccc(Br)cc4)no3)CC2)c1`, for which the inhibition at 10 µM in the test with HCCLM3 [3] is 70%. The compound further had an IC50 with HCCLM3 [1] of 6.7 µM. Regarding `Fc1ccc(Cc2noc(C3CCN(Cc4cccnc4)CC3)n2)cc1Cl`, the inhibition at 10 µM in the test with HCCLM3 [3] amounted to 16.7%. Same read-out and setting: next, `Fc1ccc(Cc2noc([C@H]3CCCN(Cc4ccc(F)cc4)C3)n2)cc1`: 22.5%. Turning to `N#Cc1cccc(CN2CCC(c3nc(Cc4ccccc4F)no3)CC2)c1`, in the test with HCCLM3 [3], the inhibition at 10 µM worked out at 68.9%. In the test with HCCLM3 [1], this compound came in with an IC50 of 7.9 µM.

As for `Fc1ccc(Cc2noc([C@H]3CCCN3Cc3ccc(F)cc3)n2)cc1`, the inhibition at 10 µM in the test with HCCLM3 [3] worked out at 32.5%.

As for `N#Cc1cccc(CN2CCC[C@@H]2c2nc(Cc3ccc(F)cc3)no2)c1`, the inhibition at 10 µM with HCCLM3 [3] was 38.8%. Still for that read-out and setting: next, `O=C(NCCc1nc(Cc2ccc(F)cc2)no1)c1ccc(F)cc1`: 24.3%. The same measure, in the same setting: for `N#Cc1cccc(CN2CCC(c3nc(Cc4cc(F)ccc4F)no3)CC2)c1` the value was 12.2%. For the compound `N#Cc1cccc(CN2CCC(c3nc(Cc4ccc(Br)c(F)c4)no3)CC2)c1`, in the test on HCCLM3 [3], the inhibition at 10 µM was determined as 74.4%. Further, in the test with HCCLM3 [1], the IC50 was determined as 6.4 µM. Take `N#Cc1cccc(CN2CCC(c3nc(Cc4ccc(F)cc4Br)no3)CC2)c1`: the inhibition at 10 µM with HCCLM3 [3] worked out at 12.7%.

Consider `N#Cc1cccc(C(=O)N2CCC(c3nc(Cc4ccc(F)cc4)no3)CC2)c1`, for which the inhibition at 10 µM in the test with HCCLM3 [3] was 22.4%. Still for that read-out and setting: for `O=C(Cc1ccc(F)cc1)N1CCC[C@@H](c2nc(-c3ccc(F)cc3)no2)C1` the value was 18.3%; for `O=C(Cc1ccc(F)cc1)N1CCC[C@H](c2nc(Cc3ccc(F)cc3)no2)C1`, 5.3%.

Turning to `N#Cc1cccc(CN2CCC(c3nc(Cc4ccc(F)cc4)no3)CC2)c1`, the inhibition at 10 µM with HCCLM3 [3] came out at 77.5%. Moreover, in the test with HCCLM3 [1], the IC50 was 5.9 µM.

With `Fc1ccc(Cc2noc([C@H]3CCCN3Cc3ccc(C(F)(F)F)cc3)n2)cc1`, in the test with HCCLM3 [3], the inhibition at 10 µM was 13.3%. As for `O=S(=O)(NCCc1nc(Cc2ccc(F)cc2)no1)c1ccc(F)cc1`, the inhibition at 10 µM in the test with HCCLM3 [3] is 13.2%. In the case of `N#Cc1cccc(CN2CCC(c3nc(Cc4ccc(C(F)(F)F)cc4)no3)CC2)c1`, the inhibition at 10 µM in the test with HCCLM3 [3] was determined as 56.4%. This compound yielded an IC50 with HCCLM3 [1] of 9.2 µM. Regarding `O=C(Cc1ccc(F)cc1)N1CC(c2nc(Cc3ccc(F)cc3)no2)C1`, the inhibition at 10 µM with HCCLM3 [3] was 11.5%.

Take `N#Cc1cccc(CN2CCC(c3nc(Cc4ccccc4)no3)CC2)c1`: the inhibition at 10 µM with HCCLM3 [3] worked out at 64.5%. In the test on HCCLM3 [1], this compound had an IC50 of 7.7 µM. Regarding `Fc1ccc(Cc2noc(C3CCN(Cc4ccc(F)cc4)CC3)n2)cc1`, the inhibition at 10 µM in the test with HCCLM3 [3] came to 30%.

Consider `Cc1ccccc1Cc1noc(C2CCN(Cc3cccc(C#N)c3)CC2)n1`, for which the inhibition at 10 µM in the test on HCCLM3 [3] amounted to 12.3%. Take `N#Cc1cccc(CN2CCC(c3nc(Cc4ccc(F)c(Br)c4)no3)CC2)c1`: the inhibition at 10 µM with HCCLM3 [3] is 83.2%. In addition, inhibition in the test on HCCLM3 [1] was half-maximal at 3.7 µM (IC50). Taken in the same sequence, the figures for `N#Cc1cccc(CN2CCC(c3nc(Cc4ccc(Cl)cc4)no3)CC2)c1` were 61.5% and 8.9 µM.

In the case of `O=C(c1ccc(F)cc1)N1CC(c2nc(Cc3ccc(F)cc3)no2)C1`, the inhibition at 10 µM in the test on HCCLM3 [3] came out at 23%. With `N#Cc1cccc(CC(=O)N2CCC(c3nc(Cc4ccc(F)cc4)no3)CC2)c1`, in the test on HCCLM3 [3], the inhibition at 10 µM turned out to be 31.5%. On the same count and under the same terms, for `O=C(c1ccc(F)cc1)N1CCC[C@H](c2nc(Cc3ccc(F)cc3)no2)C1` the value was 9.3%. On the same count and under the same terms, next, `N#Cc1cccc(CN2CCC(c3nc(Cc4cc(F)cc(F)c4)no3)CC2)c1`: 46.4%; `Fc1ccc(Cc2noc(C3CCN(Cc4ccc(C(F)(F)F)cc4)CC3)n2)cc1`: 18.8%.

With `N#Cc1cccc(CN2CCC(c3nc(Cc4cccc(F)c4F)no3)CC2)c1`, the inhibition at 10 µM in the test on HCCLM3 [3] stood at 11.7%.

On to `N#Cc1cccc(CN2CCC(c3nc(Cc4cccc(C(F)(F)F)c4)no3)CC2)c1`, for which the inhibition at 10 µM with HCCLM3 [3] is 73.6%. This compound also came in with an IC50 in the test with HCCLM3 [1] of 7.2 µM. On to `N#Cc1cccc(CN2CCC(c3nc(-c4cccc(C(F)(F)F)c4)no3)CC2)c1`, for which, in the test with HCCLM3 [3], the inhibition at 10 µM turned out to be 30.3%. With `O=C(c1ccc(F)cc1)N1CCC[C@@H](c2nc(-c3ccc(F)cc3)no2)C1`, the inhibition at 10 µM in the test on HCCLM3 [3] came to 17.8%. On the same count and under the same terms, next, `N#Cc1cccc(CN2CCC(c3nc(Cc4c(F)c(F)c(F)c(F)c4F)no3)CC2)c1`: 12.8%; `Cc1ccc(Cc2noc(C3CCN(Cc4cccc(C#N)c4)CC3)n2)cc1`: 20.6%.
